# “Also recorded” adds a separate entry of the source. Read-outs that look alike come from different tables or passages of the source.
# Tests used:
# [1] = target: T1, SEVI fibrils (Homo sapiens, UniProt P15309); assay: Fluorescence polarization: displacement of FITC-heparin from SEVI fibrils; format: binding; conditions: SEVI + 16 μg/ml FITC-heparin, 1 h room temperature
# T1 construct: PAP248-286 peptide was synthesized by New England Peptide; purchased New England Peptide (Gardner, Mass.); host or cells: chemical synthesis
# T1 sequence (P15309 248-286 limits assumed): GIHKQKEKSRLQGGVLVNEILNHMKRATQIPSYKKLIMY
# Method: Samples were incubated 1 h at room temperature and read on a PerkinElmer Life Sciences Envision 2012 multilabel reader (PerkinElmer, Waltham, Mass.) at an excitation λ=480 nm and emission λ=535 nm. The horizontal and vertical polarized fluorescence intensities were recorded, and the calculated polarization was determined in millipolarization units.
# Samples were incubated for 1 hour at room temperature and polarized fluorescence was measured.
# [2] = system: HIV-1IIIB; assay: SEVI-mediated enhancement of HIV-1 IIIB infection, CEM-M7 (CEM 5.25) cells, luciferase; format: cell-based; conditions: for Inhibition of SEVI-mediated enhancement of HIV-1 infection (luciferase): CEM cells, with SEVI fibrils, increasing concentrations
# Method: After 2 h, the medium […] were replaced.
# [3] = system: HIV-1IIIB; assay: Semen-mediated enhancement of HIV-1 IIIB infection, CEM cells; format: cell-based; conditions: HIV-1 IIIB preincubated with 50% semen, diluted 15 fold onto CEM cells
# Method: (§1) After 10 minutes, the stocks were diluted 15 fold and incubated with CEM 5.25 cells.
# [4] = system: HIV-1 IIIB; assay: Virus binding assay (p24), HIV-1 IIIB virions; format: cell-based; conditions: Jurkat cells; for Inhibition of SEVI-enhanced binding of HIV-1 virions to the cell surface (p24 ELISA): with SEVI, 90 min
# Method: as §1
# [5] = system: cervical epithelial cell lines SiHa, A2En, 3EC1; format: cell-based, human
# Excerpt: For a compound to be a legitimate HIV-1 microbicide candidate, it must not have toxic or inflammatory effects on the cervical […]. Loss of this protective layer leads to an increased ability for HIV-1 to cross the mucosal barrier, and inflammatory effects drive recruitment of HIV-1 target cells, further decreasing the natural barriers against successful transmission of HIV. […] To do this, the following cell lines were used: 1) SiHa cells, a cervical carcinoma cell line; 2) A2En cells, a primary cell-derived line from the endocervical […]; and 3) 3EC1 cells, a primary cell-derived line from the ectocervical […]. […] Viability was assessed at 24 h by using the resazurin cytotoxicity assay. Resazurin cytotoxicity data were confirmed by trypan blue counts of viable cells.
# [6] = system: cervical epithelial cell lines SiHa, A2En, 3EC1; format: cell-based, human; remark: listed apart in the source
# Method: Cytokine and chemokine production was assessed at 12 h by ELISA (R&D systems). Cells were also treated with 0.1% nonoxynol-9 as a positive control for cytotoxicity and with 0.1 μg/ml FSL1, a synthetic diacylated lipoprotein derived from Mycoplasma salivarium (InvivoGen, San Diego, Calif.), as a positive control for chemokine production.
# Nonoxynol-9 (non-9), a spermicide, was used as a positive control. […] Cell culture supernatants were then assessed for the presence of the inflammatory cytokines and chemokines Mip-3α (FIG. 5B), IL-8 (FIG. 16C), IL-1β, and TNF-α.
# [7] = target: T1, SEVI fibrils; assay: Flow cytometry: binding of SEVI-biotin fibrils to the Jurkat cell surface; format: cell-based; conditions: 1 h; for MFI (mean fluorescent intensity): Jurkat cells + SEVI-biotin
# Method: Cells were incubated for 1 h at 37° C., washed, and stained for 1 h with a covalent conjugate of streptavidin and fluorescein isothiocyanate (SA-FITC). Cells were washed and run on an Accuri C6 Flow Cytometer (Accuri Cytometers, Ann Arbor, Mich.). Data were analyzed using FlowJo (TreeStar Inc, Ashland, Oreg.).
# After that time, fibrillar structures were examined by ThT fluorescence. ThT changes in fluorescence intensity when intercalated into the β-sheet structure common to amyloid fibrils; therefore, ThT fluorescence serves as a surrogate measure for fibrillar structure of SEVI and for the stability of SEVI fibrils. […] Binding of the fibrils to the cell surface was detected using SA-FITC. […] Surface-bound fibrils were detected with SA-FITC and measured by flow cytometry. Results are shown as percentage of cells with bound fibrils (SA-FITC+) as well as mean fluorescent intensity (MFI).
# [8] = target: T2, aggregated Alzheimer disease-related Aβ(1-42) peptides (Homo sapiens, UniProt P05067); assay: Fluorescence binding assay of BTA-EG6 to aggregated Aβ(1-42) peptides; conditions: same fluorescence binding assay
# T2 construct: aggregated Alzheimer disease-related Aβ(1-42) peptides
# T2 sequence (P05067 672-713 limits assumed): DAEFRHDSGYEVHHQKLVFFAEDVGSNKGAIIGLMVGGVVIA
# Excerpt: Error bars represent standard deviations from the mean.
# [9] = target: T1, SEVI fibrils; assay: ThT fluorescence stability of preformed SEVI fibrils; conditions: 3 h incubation
# Excerpt: After that time, fibrillar structures were examined by ThT fluorescence. ThT changes in fluorescence intensity when intercalated into the β-sheet structure common to amyloid fibrils; therefore, ThT fluorescence serves as a surrogate measure for fibrillar structure of SEVI and for the stability of SEVI fibrils.
# [10] = system: HIV-1ADA; assay: SEVI-mediated enhancement of HIV-1 ADA infection, CEM-M7 cells, luciferase; format: cell-based
# Method: Treated virions were then added to 5×10^4 CEM-M7 cells/well in 96-well flat-bottomed tissue culture plates. After 2 h, the medium axis were replaced. Infection was assayed after 48 h by quantifying luciferase expression using the Promega Dual-Luciferase assay and a Beckman Coulter DTX880 plate reader.
# [11] = system: HIV-1BaL; assay: SEVI-mediated enhancement of HIV-1 BaL infection of PBMCs, p24; format: cell-based
# Method: Cells were washed at 3 h, and infection was analyzed at day 4 using the HIV-1 p24 antigen capture assay (Advanced Bioscience Laboratory).
# [12] = system: HIV-1ADA; assay: Semen-mediated enhancement of HIV-1 ADA infection, CEM-M7 cells; format: cell-based
# Method: After 15 min, the semen and virus mixture was diluted 1:15 into 5×10^4 CEM-M7 cells/well in a 96-well plate. Cells were washed after 1 h, and infection was assayed at 48 h as above.
# As human semen has been reported to be toxic to cultured cells, a protocol that minimized this toxicity was used. Pooled human semen was added to HIV-1IIIB virus in a 1:1 dilution. After 15 min, this solution was added to cells at a 1:15 dilution for a final concentration of 3.3%.
# [13] = system: SiHa cells; assay: Semen-mediated chemokine release from SiHa cells (ELISA); format: cell-based; conditions: pooled human semen, 33 μg/ml BTA-EG6, 6 h
# Method: (§2) Supernatant was collected at 6 and 24 h, and the production of the chemokines IL-8 and Mip-3α was measured by ELISA (R&D Systems). […] After 6 h, supernatants were collected, and the production of the chemokines IL-8 and Mip-3α was measured by ELISA (R&D systems, Minneapolis, Minn.).
# After 6 h, supernatants were collected and analyzed for production of IL-8 or MIP-3α.
# [14] = system: HIV-1ADA; assay: Virus binding assay (p24), HIV-1 ADA virions; format: cell-based; conditions: A2En endocervical cells, with SEVI
# Method: After 90 min, cells were washed to remove any unbound virus, and bound virions were detected using an HIV-1 p24 antigen capture assay (Advanced Bioscience Laboratory).
# Surface-bound virions were then measured by p24 ELISA after washing off unbound virus. […] Additionally, this experiment was performed using A2En cells, a primary cell-derived endocervical cell line.
# [15] = system: A2En cells; assay: HIV-1 BaL + SEVI chemokine release from A2En cells (ELISA); format: cell-based, human; conditions: HIV-1BAL virions + SEVI
# Method: as §2
# [16] = system: HIV-1IIIB; conditions: previously reported value for BTA-EG6; cited from earlier work
# [17] = target: T1, SEVI fibrils; assay: Example 3: fluorescence assay, Kd of monomer and oligomers 1-5 to SEVI fibrils; format: binding; conditions: Example 3, Table 2, estimated
# Method: To test whether binding affinity/avidity is reduced in oligomeric forms, the binding of monomeric and oligomeric forms was assayed to determine the affinity/avidity constants (Kd) for the binding of monomer and oligomers 1-5 to amyloid fibrils formed from SEVI peptides.
# [18] = target: T1, SEVI fibrils; assay: Example 4: centrifugation fluorescence binding assay of 1-5 to SEVI fibrils; conditions: Table 3, 5% DMSO/PBS
# Excerpt: Each experiment was repeated at least 3 times. Error bars represent standard deviations from the mean.
# When the Kd values of compounds 1-5 to SEVI fibrils was examined, a similar trend for improved binding of the oligomeric BTA compounds was observed (Table 3). The greatest improvement in binding as a function of increasing valence number in the oligomer was observed when comparing the monomer to dimer and the tetramer to pentamer.
# [19] = target: T3, Aβ(1-42) fibrils (Homo sapiens, UniProt P05067); assay: Example 4: centrifugation fluorescence binding assay of 1-5 to Aβ(1-42) fibrils
# T3 construct: Aβ(1-42) peptide was purchased from GL Biochem (Shanghai, China) Ltd; purchased GL Biochem (Shanghai, China) Ltd; host or cells: synthetic peptide; fibrils grown in PBS at 37 °C for 24 h
# T3 sequence (P05067 672-713 limits assumed): as above
# Method: The binding of BTA monomer oligomer to amyloid fibrils was measured according to the centrifugation assay described by Levine for BTA-1 to Aβ fibrils (Levine et al., Amyloid 12:5-14 (2005)). […] These incubations were performed in duplicate runs and allowed to equilibrate for 12 hours at room temperature. After equilibration, each solution was centrifuged at 16,000 g for 20 minutes at 4° C. The supernatants were separated from the pelleted fibrils, and 220 μL of fresh 5% DMSO/PBS was added to re-suspend the pellets. 100 μl aliquots of each re-suspended pellet was pipetted into a cuvette (ultramicrocuvette, 10-mm light path, Hellma®, Müllheim, Germany), and the fluorescence of the bound molecule was determined at 355 nm excitation and 420 nm emission using a spectrofluorometer (Photon Technology International, Inc., Birmingham, N.J.). Each experiment was repeated at least 3 times. Error bars represent standard deviations from the mean. […] The data were processed using Origin 7.0 (MicroCal Software, Inc., Northampton, Mass.).
# [20] = system: HIV-IIIB; assay: Screening hits: SEVI-mediated enhancement of HIV-IIIB infection, CEM-M7 cells; format: cell-based, HIV-1; conditions: 50 μM, 15 μg/mL SEVI, 48 hours
# Method: Each of the selected compound shown below was incubated at 50 μM with 15 μg/mL of SEVI for 10 minutes. HIV-IIIB was then added and incubated for an additional 10 minutes prior to being added to CEM-M7 cells. After two hours the inoculum was removed and the cells washed with PBS. The cells were incubated for an additional 48 hours and then HIV infection was assessed by luciferase activity. Luciferase activity is graphed for each of the selected compounds in FIG. 29.
# A high throughput assay was established to identify SEVI-binding compounds.
# [21] = Table 3, 5% DMSO/PBS, read-out: Kd (nM) to Aβ(1-42) fibrils
# [22] = heparin (100 μg/ml) positive control
compound,measurement,setting,value
Cc1ccc2nc(-c3ccc(NCCOCCOCCOCCO)cc3)sc2c1 [BTA-EG4],"Binding to SEVI fibrils, displacement of FITC-heparin (decrease of polarization)",[1],capable of binding SEVI
same,Inhibition of SEVI-mediated enhancement of HIV-1 infection (luciferase),[2],decreasing levels of luciferase activity
same,Inhibition of semen-mediated enhancement of HIV infection (luciferase),[3],capable of inhibiting semen mediated enhancement of HIV infection
same,Inhibition of SEVI-enhanced binding of HIV-1 virions to the cell surface (p24 ELISA),[4],decrease in HIV-1 binding to the cells
same,Cell viability (Alamar Blue),[5],did not affect the cell viability
same,"Cytokine production (IL-1b, MIP-3a, TNF-a) by ELISA",[6],do not induce cytokine production
Cc1ccc2nc(-c3ccc(NCCOCCOCCOCCOCCOCCO)cc3)sc2c1 [BTA-EG6],"SA-FITC+ (%), percentage of cells with bound fibrils",[7]; BTA-EG6 high (27 μg/ml),21.2%
same,"SA-FITC+ (%), percentage of cells with bound fibrils",[7]; BTA-EG6 low (5.5 μg/ml),36.6%
same,MFI (mean fluorescent intensity),[7]; BTA-EG6 high (27 μg/ml),38.7
same,MFI (mean fluorescent intensity),[7]; BTA-EG6 low (5.5 μg/ml),95.3
same,Kd,[8],111 ± 32 nM
same,"Binding to SEVI fibrils, displacement of FITC-heparin (decrease of polarization)",[1],capable of binding SEVI; also recorded: able to displace fluorescent heparin from the SEVI fibrils in a dose-dependent fashion
same,Effect on stability of preformed SEVI fibrils (ThT fluorescence),[9],no effect on fibrillar stability
same,Inhibition of SEVI-mediated enhancement of HIV-1 infection (luciferase),[2],decreasing levels of luciferase activity; also recorded: reducing infectivity nearly back to baseline levels
same,Effect on infectivity of HIV alone,"[2]; CEM-M7, absence of SEVI",no effect on the infectivity of HIV virus alone
same,Inhibition of SEVI-mediated enhancement of HIV-1 infection (luciferase),"[10]; CEM-M7, 15 μg/ml SEVI",significant dose-dependent inhibition
same,Effect on infectivity of HIV alone,"[10]; CEM-M7, absence of SEVI",No effect on the infectivity of HIV-1ADA was observed
same,Inhibition of SEVI-mediated enhancement of HIV-1 infection (p24),"[11]; HIV-1BAL, 15 μg/ml SEVI",able to inhibit SEVI-mediated enhancement of HIV-1 infection in PBMCs
same,Effect on infectivity of HIV alone,"[11]; HIV-1BaL, absence of SEVI",no effect on the infectivity of HIV-1BaL
same,Inhibition of semen-mediated enhancement of HIV infection (luciferase),[3],capable of inhibiting semen mediated enhancement of HIV infection; also recorded: efficiently inhibited the semen mediated enhancement of HIV-1 infection
same,Inhibition of semen-mediated enhancement of HIV infection (luciferase),[12],this effect extended to infection with an R5 virus
same,Effect on semen-stimulated IL-8 and MIP-3α production,[13],no inhibitory effect on semen-stimulated chemokine production
same,Effect on binding of HIV virions to the cell surface,[4]; absence of SEVI,no effect on the binding of HIV virions to the cell surface
same,Inhibition of SEVI-enhanced binding of HIV-1 virions to the cell surface (p24 ELISA),[4],decrease in HIV-1 binding to the cells
same,Inhibition of SEVI-enhanced binding of HIV-1 virions to the cell surface (p24 ELISA),[4]; listed as BTAEG6,efficiently abrogated
same,Inhibition of SEVI-enhanced binding of HIV-1 virions to the cell surface (p24 ELISA),[14],this effect was inhibited
same,Inhibition of SEVI-increased IL-8 release,[15],able to inhibit this release
same,Cell viability (Alamar Blue),[5],did not affect the cell viability
same,Cell viability (resazurin cytotoxicity assay),[5],did not have any effects on cell viability
same,"Cytokine production (IL-1b, MIP-3a, TNF-a) by ELISA",[6],do not induce cytokine production
same,Concentration required to completely neutralize the effects of SEVI on HIV-1 infection,[16],44 µM
"CCNC(=O)CCOCCOCCOCCOCCNC(=O)CCNc1ccc(-c2nc3ccc(C)cc3s2)cc1 [Compound 1, BTA Monomer]",Kd,[17],107 ± 16 nM
same,Kd,[18],236 ± 90 nM
same,Kd,[19]; [21],235 ± 75 nM
"Cc1ccc2nc(-c3ccc(NCCC(=O)NCCOCCOCCOCCOCCC(=O)NCCNC(=O)CCOCCOCCOCCOCCNC(=O)CCNc4ccc(-c5nc6ccc(C)cc6s5)cc4)cc3)sc2c1 [Compound 2, BTA Dimer]",Kd,[17],75 ± 10 nM
same,Kd,[18],69 ± 1 nM
same,"Fold lower Kd than monomer 1, Aβ(1-42) fibrils",[19],8 fold
same,Kd,[19],29 ± 4 nM
"Cc1ccc2nc(-c3ccc(NCCC(=O)NCCOCCOCCOCCOCCC(=O)NCCN(CCNC(=O)CCOCCOCCOCCOCCNC(=O)CCNc4ccc(-c5nc6ccc(C)cc6s5)cc4)CCNC(=O)CCOCCOCCOCCOCCNC(=O)CCNc4ccc(-c5nc6ccc(C)cc6s5)cc4)cc3)sc2c1 [Compound 3, BTA Trimer]",Kd,[17],40 ± 6 nM
same,Kd,[18],40 ± 6 nM
same,Kd,[19]; [21],26 ± 6 nM
"CCNC(=O)C(CCCCNC(=O)CCOCCOCCOCCOCCNC(=O)CCNc1ccc(-c2nc3ccc(C)cc3s2)cc1)NC(=O)C(CCCCNC(=O)CCOCCOCCOCCOCCNC(=O)CCNc1ccc(-c2nc3ccc(C)cc3s2)cc1)NC(=O)C(CCCCNC(=O)CCOCCOCCOCCOCCNC(=O)CCNc1ccc(-c2nc3ccc(C)cc3s2)cc1)NC(=O)CCOCCOCCOCCOCCNC(=O)CCNc1ccc(-c2nc3ccc(C)cc3s2)cc1 (stereo not shown) [Compound 4, BTA Tetramer]",Kd,[17],56 ± 6 nM
same,Kd,[18],59 ± 6 nM
same,Kd,[19]; [21],20 ± 5 nM
COc1ccc(Cl)cc1-c1ccc(-c2c(C#N)c(N)n3c(nc4ccccc43)c2C#N)o1 [Compound 8E2],Inhibition of SEVI-mediated enhancement of HIV infection (luciferase),[20],inhibited SEVI-mediated enhancement of HIV infection
COc1ccc2cc3[n+](cc2c1OC)CCc1cc2c(cc1-3)OCO2 [Compound 11A5],Inhibition of SEVI-mediated enhancement of HIV infection (luciferase),[20],inhibited SEVI-mediated enhancement of HIV infection
heparin [reference compound],"SA-FITC+ (%), percentage of cells with bound fibrils",[7]; [22],31.7%
same,MFI (mean fluorescent intensity),[7]; [22],376
same,"Binding to SEVI fibrils, displacement of FITC-heparin (decrease of polarization)",[1],the polarization decreased
